Data: PMC9822066 (Molecules, 2022)
Where a name gives a salt, the structure may show the parent alone. Read-outs that look alike come from different tables or passages of the source.

What was measured:
[1] = PAMPA, triplicate
[2] = target: T1, electric eel AChE (eeAChE) (Electrophorus electricus, UniProt O42275); test: biochemical; conditions: triplicate independent experiments
T1 construct: purchased Sigma–Aldrich (Steinheim, Germany)

[3] = target: BuChE from equine serum (eqBuChE) (Equus caballus, UniProt P81908); test: biochemical; assay type: biochemical; conditions: mean ± SEM, triplicate independent experiments
Sequence of BuChE from equine serum (eqBuChE) (P81908 whole entry): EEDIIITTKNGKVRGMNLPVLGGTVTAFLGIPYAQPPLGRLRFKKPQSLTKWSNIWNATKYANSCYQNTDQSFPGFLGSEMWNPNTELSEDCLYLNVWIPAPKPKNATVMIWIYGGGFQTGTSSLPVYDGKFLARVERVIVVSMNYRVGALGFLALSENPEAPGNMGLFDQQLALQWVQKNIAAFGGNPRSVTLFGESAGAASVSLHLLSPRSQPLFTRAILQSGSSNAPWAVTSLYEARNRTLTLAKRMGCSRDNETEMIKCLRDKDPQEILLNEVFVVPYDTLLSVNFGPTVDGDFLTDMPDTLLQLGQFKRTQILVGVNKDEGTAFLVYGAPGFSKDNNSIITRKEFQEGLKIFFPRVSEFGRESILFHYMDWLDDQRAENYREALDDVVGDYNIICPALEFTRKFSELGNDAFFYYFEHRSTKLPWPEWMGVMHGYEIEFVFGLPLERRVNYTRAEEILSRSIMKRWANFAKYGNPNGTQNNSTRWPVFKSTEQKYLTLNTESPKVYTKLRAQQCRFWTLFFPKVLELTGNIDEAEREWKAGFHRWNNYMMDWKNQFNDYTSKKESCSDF

hMAO B = target: T2, hMAO B (Homo sapiens, UniProt P27338); test: Fluorometric MAO assay, hMAO B inhibition; assay type: biochemical; conditions: mean ± SEM of two independent experiments, read-out: hMAO B %Inh. at 1 µM
T2 sequence (P27338 1-520): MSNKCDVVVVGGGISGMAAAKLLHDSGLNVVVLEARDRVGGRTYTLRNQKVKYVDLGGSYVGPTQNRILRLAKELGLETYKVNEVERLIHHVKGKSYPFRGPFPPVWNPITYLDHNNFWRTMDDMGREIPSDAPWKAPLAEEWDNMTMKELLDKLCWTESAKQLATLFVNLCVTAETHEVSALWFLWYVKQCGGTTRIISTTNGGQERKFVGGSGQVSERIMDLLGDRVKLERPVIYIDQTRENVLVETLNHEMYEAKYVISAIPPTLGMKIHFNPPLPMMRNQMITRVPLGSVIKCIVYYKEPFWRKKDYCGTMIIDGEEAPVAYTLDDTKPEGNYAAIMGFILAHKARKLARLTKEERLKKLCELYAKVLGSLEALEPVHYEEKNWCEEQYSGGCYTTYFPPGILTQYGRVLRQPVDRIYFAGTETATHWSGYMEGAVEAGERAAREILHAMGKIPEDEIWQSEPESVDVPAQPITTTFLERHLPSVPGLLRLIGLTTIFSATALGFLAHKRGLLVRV

human H3R = target: T3, human H3R (Homo sapiens, UniProt Q9Y5N1)
T3 construct: expressed in transfected cells; host or cells: HEK293
T3 sequence (Q9Y5N1 whole entry): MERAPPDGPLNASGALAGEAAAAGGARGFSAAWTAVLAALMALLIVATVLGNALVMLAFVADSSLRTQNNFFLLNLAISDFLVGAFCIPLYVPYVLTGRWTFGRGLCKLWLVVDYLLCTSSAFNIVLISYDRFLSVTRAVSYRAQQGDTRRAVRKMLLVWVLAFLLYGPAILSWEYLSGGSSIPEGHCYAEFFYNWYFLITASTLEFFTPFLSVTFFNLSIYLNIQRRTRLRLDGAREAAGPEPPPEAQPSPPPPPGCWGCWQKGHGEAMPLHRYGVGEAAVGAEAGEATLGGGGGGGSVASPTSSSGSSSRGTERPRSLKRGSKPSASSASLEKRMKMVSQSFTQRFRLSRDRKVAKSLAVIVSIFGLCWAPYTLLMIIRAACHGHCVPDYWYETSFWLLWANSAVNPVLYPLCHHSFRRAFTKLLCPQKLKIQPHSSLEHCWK

hH3R = conditions: cited from earlier work
human AChE = conditions: cited from earlier work
human BuChE = conditions: cited from earlier work
human MAO B = conditions: cited from earlier work
[4] = parameters: method as in PMID 32882609; conditions: Figure 1; cited from earlier work
hepatoma HepG2 cells = test: Hepatotoxicity, MTS viability of HepG2 cells; conditions: 72 h incubation, MTS
Protocol: Doxorubicin (DX) at the concentration of 1 μM was used as the reference cytostatic drug.
A multifunctional reader EnSpire (PerkinElmer, Waltham, MA, USA) was used to measure the absorbance.

electric eel AChE = test system: electric eel AChE; parameters: method as in PMID 33991182, PMID 32882609, PMID 28832188, PMID 19222043, PMID 18396354; conditions: Figure 2; read-out: electric eelAChE IC50; cited from earlier work
equine BuChE = test system: equine BuChE; parameters: method as in PMID 33991182, PMID 32882609, PMID 28832188, PMID 19222043, PMID 18396354; conditions: Figure 2; read-out: equineBuChE IC50; cited from earlier work
[5] = test system: SH-SY5Y neuroblastoma cells; test: Neuroprotection against H2O2, LDH necrosis assay; assay type: cell-based; conditions: 50 µM, 300 µM H2O2, 24 h
[6] = test system: SH-SY5Y neuroblastoma cells; test: Neuroprotection against H2O2, MTS viability assay; assay type: cell-based; conditions: 50 µM, 300 µM H2O2, 24 h
[7] = mean ± SEM, read-out: eeAChE IC50
[8] = values marked *; mean [95% CI]; read-out: hH3R Ki; cited from earlier work
[9] = read-out: hH3R Ki; values marked *; mean [95% CI]; cited from earlier work
[10] = Figure 2, read-out: humanH3R Ki
[11] = Figure 2, read-out: humanAChE IC50
[12] = Figure 2, read-out: humanBuChE IC50

T1 sequence (O42275 24-633): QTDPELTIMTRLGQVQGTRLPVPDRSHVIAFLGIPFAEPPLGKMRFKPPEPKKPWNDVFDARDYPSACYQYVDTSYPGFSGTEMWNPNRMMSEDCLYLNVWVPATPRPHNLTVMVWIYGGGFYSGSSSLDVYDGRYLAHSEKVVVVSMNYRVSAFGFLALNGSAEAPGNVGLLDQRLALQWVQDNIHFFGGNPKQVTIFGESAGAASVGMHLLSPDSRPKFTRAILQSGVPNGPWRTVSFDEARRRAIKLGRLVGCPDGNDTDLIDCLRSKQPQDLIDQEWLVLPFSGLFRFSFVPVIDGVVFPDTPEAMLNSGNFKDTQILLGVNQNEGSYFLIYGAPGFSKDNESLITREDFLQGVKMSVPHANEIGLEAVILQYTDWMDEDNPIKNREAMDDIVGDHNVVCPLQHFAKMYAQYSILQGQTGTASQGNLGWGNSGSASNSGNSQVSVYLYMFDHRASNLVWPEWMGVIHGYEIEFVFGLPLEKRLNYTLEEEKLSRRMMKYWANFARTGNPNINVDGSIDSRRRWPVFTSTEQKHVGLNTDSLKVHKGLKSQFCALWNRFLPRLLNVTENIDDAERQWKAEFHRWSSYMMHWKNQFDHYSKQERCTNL

| Compound | IC50 [2, 7] [nM] | IC50 [3] [nM] | inhibition at 1 µM (hMAO B) [%] | Ki (human H3R; [8]) [nM] | further results |
| --- | --- | --- | --- | --- | --- |
| Cn1c(=O)c2c(ncn2C)n(C)c1=O [Caffeine, reference compound] |  |  |  |  | Pe ± SD [1]: 15.1 ± 0.4 10^−6 cm/s |
| O=C(c1ccccc1)c1cccc(OCCCCCCN2CCCCC2)c1 [Compound 8, Phenyl (3-((6-(piperidin-1-yl)hexyl)oxy)phenyl)methanone hydrogen oxalate] | 3630 ± 111 | 2100 ± 60 | 15 | 76 |  |
| O=C(c1ccccc1)c1ccc(OCCCCCCN2CCCCC2)cc1 [Compound 9, Phenyl (4-((6-(piperidin-1-yl)hexyl)oxy)phenyl)methanone hydrogen oxalate] | 3730 ± 85 | 1780 ± 34 | 9 | 41 |  |
| CC1CCCN(CCCCCOc2ccc(C(=O)c3ccccc3)cc2)C1 (stereo not drawn) [Compound 14, (4-((5-(3-Methylpiperidin-1-yl)pentyl)oxy)phenyl)(phenyl)methanone hydrogen oxalate] | 3180 ± 83 | 3780 ± 61 | 9 | 40 |  |
| CC1CCCN(CCCCCCOc2cccc(C(=O)c3ccccc3)c2)C1 (stereo not drawn) [Compound 18, (3-((6-(3-Methylpiperidin-1-yl)hexyl)oxy)phenyl)(phenyl)methanone hydrogen oxalate] | 2000 ± 30 | 2900 ± 77 | 27 | 110 |  |
| CC1CCCN(CCCCCCOc2ccc(C(=O)c3ccccc3)cc2)C1 (stereo not drawn) [Compound 19, (4-((6-(3-Methylpiperidin-1-yl)hexyl)oxy)phenyl)(phenyl)methanone hydrogen oxalate] | 2110 ± 50 | 1980 ± 34 | 7 | 53 |  |
| O=C(c1ccccc1)c1ccc(OCCCCCN2CCCCCC2)cc1 [Compound 28, (4-((5-(Azepan-1-yl)pentyl)oxy)phenyl)(phenyl)methanone hydrogen oxalate] |  | 678 ± 7 | 29 |  | IC50 ([2]; eeAChE IC50, mean ± SEM): 4630 ± 100 nM; Ki (human H3R; [9]): 39 nM |
| O=C(c1ccccc1)c1cccc(OCCCCCCN2CCCCCC2)c1 [Compound 32, (3-((6-(Azepan-1-yl)hexyl)oxy)phenyl)(phenyl)methanone hydrogen oxalate] | 1550 ± 34 | 616 ± 2 | 17 | 70 |  |
| O=C(c1ccccc1)c1ccc(OCCCCCCN2CCCCCC2)cc1 [Compound 33, (4-((6-(Azepan-1-yl)hexyl)oxy)phenyl)(phenyl)methanone hydrogen oxalate] | 1810 ± 38 | 1280 ± 38 | 23 |  | Ki (human H3R; [9]): 41 nM |
| O=c1c2ccccc2oc2ccc(OCCCCCN3CCCCCC3)cc12 [Compound I] |  |  |  |  | Ki (hH3R; Figure 1, read-out: hH3R Ki): 170 nM; IC50 (human AChE; Figure 1, read-out: hAChEI IC50): 390 nM; IC50 (human BuChE; Figure 1, read-out: hBuChE IC50): 1280 nM; IC50 (human MAO B; Figure 1, read-out: hMAO B IC50): 780 nM; in vivo activity [4]: significant memory-enhancing effect |
| COc1cccc2c1C(=O)c1c(O)c3c(c(O)c1C2=O)C[C@@](O)(C(=O)CO)C[C@@H]3O[C@H]1C[C@H](N)[C@H](O)[C@H](C)O1 [Doxorubicin, reference compound] |  |  |  |  | concentration decreasing HepG2 cell viability (hepatoma HepG2 cells): ≤ 1000 nM |
| CCN(CC)Cc1cc2c(=O)c3c(O)cccc3oc2cc1OCC=C(C)C [compound III] |  |  |  |  | IC50 (electric eel AChE): 2600 nM; IC50 (equine BuChE): 510 nM |
| O=c1c2ccccc2oc2ccc(OCCCCCCN3CCCCCC3)cc12 [compound II] |  |  |  |  | Ki (hH3R; [10]): 500 nM; IC50 (human MAO B; Figure 2, read-out: humanMAOB IC50): 390 nM; IC50 (electric eel AChE): 310 nM; IC50 (equine BuChE): 610 nM |
| c1cc2c(cc1OCCCCCCN1CCCCC1)CN1CCCC1=N2 [compound IV] |  |  |  |  | Ki (hH3R; [10]): 110 nM; IC50 (human AChE; [11]): 39.1 nM; IC50 (equine BuChE): 1300 nM |
| COc1ccc(C(=O)c2cccc(CN(C)Cc3ccccc3)c2)cc1OC [compound V] |  |  |  |  | IC50 (human AChE; [11]): 460 nM; IC50 (human BuChE; [12]): 60700 nM |
| C[C@@H]1NCCc2cc(O)c(O)cc21 [salsolinol, reference compound] |  |  |  |  | effect on necrosis (LDH test) [5]: lowered the number of necrotic cells to the control level; effect on viability (MTS test) [6]: statistically significantly increased the number of living cells |
| xanthostigmine |  |  |  |  | IC50 (human AChE; [11]): 0.3 nM; IC50 (human BuChE; [12]): 48 nM |
